Earlier results in patent publication US20080152724A1, “TREATMENT OF PER[…] AN […] RELEASE IODINE” (priority 2006, published 2008).

Tested on: test strains
Conditions: all of the test strains; after 30 seconds of exposure

N=C(NCCCCCCNC(=N)NC(=N)Nc1ccc(Cl)cc1)NC(=N)Nc1ccc(Cl)cc1.O=C(O)[C@H](O)[C@@H](O)[C@H](O)[C@H](O)CO.O=C(O)[C@H](O)[C@@H](O)[C@H](O)[C@H](O)CO [chlorhexidine gluconate]
bactericidal activity: residual bacteria were observed in most species
